Test [1] concerns the target T1, ABL1 (64-515) (Homo sapiens (Human), UniProt P00519). In words: Caliper ABL1 (64-515) microfluidic mobility shift kinase assay. The settings on record: read-out: Caliper ABL1 (64-515) IC50.
The target of test [2] is T1, ABL1 (64-515). The test is described as follows: Radio ABL1 (64-515) radiometric filter-binding kinase assay. The settings on record: 20 μM ATP. Type of test: biochemical.
Method: Pre-incubation of enzyme with compounds (when stated) was performed by exposing the enzyme to compounds prior to addition of the substrate mixture (ATP and/or peptide substrate). […] Filter-plates were washed 3× with 0.5% H3PO4, followed by addition of 30 μL scintillation cocktail (Microscint, Perkin Elmer) per well and then analysed in a TopCount NXT scintillation counter (Perkin Elmer). Results were expressed as IC50 values.

Some results are limits rather than exact numbers.

T1 sequence (P00519 64-515): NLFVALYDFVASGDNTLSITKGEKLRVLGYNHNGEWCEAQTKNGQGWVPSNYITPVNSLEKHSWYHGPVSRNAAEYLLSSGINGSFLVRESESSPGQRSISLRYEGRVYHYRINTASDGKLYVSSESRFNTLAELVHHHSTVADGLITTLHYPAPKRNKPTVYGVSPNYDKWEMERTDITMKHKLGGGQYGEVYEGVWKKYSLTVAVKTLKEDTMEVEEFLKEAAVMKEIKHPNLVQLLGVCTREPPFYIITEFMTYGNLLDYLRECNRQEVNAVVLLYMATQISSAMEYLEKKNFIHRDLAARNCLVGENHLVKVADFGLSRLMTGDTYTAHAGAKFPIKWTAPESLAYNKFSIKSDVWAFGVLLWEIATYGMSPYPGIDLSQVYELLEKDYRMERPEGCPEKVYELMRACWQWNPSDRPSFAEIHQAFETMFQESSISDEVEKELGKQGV

`O=C(Nc1ccc(OC(F)(F)Cl)cc1)c1cnc(NC[C@@H](O)CCO)c(-c2ccn[nH]2)c1` [Example 98, (S)—N-(4-(Chlorodifluoromethoxy)phenyl)-6-((2,4-dihydroxybutyl)amino)-5-(1H-pyrazol-5-yl)nicotinamide]: at ABL1 (64-515) [1], the IC50 is 5.7 nM.
The same measure, in the same setting: next, `O=C(Nc1ccc(OC(F)(F)Cl)cc1)c1cnc(NCC[C@@H](O)CO)c(-c2ccn[nH]2)c1` [Example 102, (R)—N-(4-(Chlorodifluoromethoxy)phenyl)-6-((3,4-dihydroxybutyl)amino)-5-(1H-pyrazol-5-yl)nicotinamide]: 13 nM.
On to `CC1(O)CN(c2ncc(C(=O)Nc3ccc(OC(F)(F)Cl)cc3)cc2-c2ccn[nH]2)C1` [Example 66, N-(4-(Chlorodifluoromethoxy)phenyl)-6-(3-hydroxy-3-methylazetidin-1-yl)-5-(1H-pyrazol-5-yl)nicotinamide], for which the IC50 on ABL1 (64-515) [2] was 1.5 nM; on ABL1 (64-515) [1], 0.8 nM.
The matching figures for `NC12CC1CN(c1ncc(C(=O)Nc3ccc(OC(F)(F)F)cc3)cc1-c1ccn[nH]1)C2` (centres unmarked) [Example 33, 6-(1-Amino-3-azabicyclo[3.1.0]hexan-3-yl)-5-(1H-pyrazol-5-yl)-N-(4-(trifluoromethoxy)phenyl)nicotinamide]: 3 nM and 5 nM.
Taken in the same sequence, the figures for `O=C(Nc1ccc(OC(F)(F)F)cc1)c1cnc(N2CCOC(CO)C2)c(-c2ccn[nH]2)c1` (centres unmarked) [Example 36, 6-(2-(Hydroxymethyl)morpholino)-5-(1H-pyrazol-5-yl)-N-(4-(trifluoromethoxy)phenyl)nicotinamide] were 5 nM and 8.1 nM.
As for `O=C(O)CCNc1ncc(C(=O)Nc2ccc(OC(F)(F)F)cc2)cc1-c1ccn[nH]1` [Example 95, 3-((3-(1H-Pyrazol-5-yl)-5-((4-(trifluoromethoxy)phenyl)carbamoyl)pyridin-2-yl)amino)propanoic acid], on ABL1 (64-515) [1], the IC50 was 47 nM.
`CC1(O)CN(c2ncc(C(=O)Nc3ccc(OC(F)(F)F)cc3)cc2-c2ccn[nH]2)C1` [Example 40, 6-(3-Hydroxy-3-methylazetidin-1-yl)-5-(1H-pyrazol-5-yl)-N-(4-(trifluoromethoxy)phenyl)nicotinamide]: the IC50 on ABL1 (64-515) [2] turned out to be 4 nM; at ABL1 (64-515) [1] it was 5.3 nM.
As for `CN(C)[C@H]1CN(c2ncc(C(=O)Nc3ccc(OC(F)(F)Cl)cc3)cc2-c2ccn[nH]2)C[C@@H]1O` [Example 53, N-(4-(Chlorodifluoromethoxy)phenyl)-6-((3S,4S)-3-(dimethylamino)-4-hydroxypyrrolidin-1-yl)-5-(1H-pyrazol-5-yl)nicotinamide], the IC50 is less than 0.1 nM on ABL1 (64-515) [2] and 1.4 nM on ABL1 (64-515) [1].
For `O=C(Nc1ccc(OC(F)(F)F)cc1)c1cnc(N2CC[C@@H](O)C2)c(-c2cnoc2)c1` [Example 8, (R)-6-(3-Hydroxypyrrolidin-1-yl)-5-(isoxazol-4-yl)-N-(4-(trifluoromethoxy)phenyl)nicotinamide], the IC50 at ABL1 (64-515) [2] is 9 nM.
Consider `O=C(Nc1ccc(OC(F)(F)F)cc1)c1cnc(N2CCOCC2)c(-c2ccn[nH]2)c1` [Example 18, 6-Morpholino-5-(1H-pyrazol-5-yl)-N-(4-(trifluoromethoxy)phenyl)nicotinamide], for which the values for the IC50 at ABL1 (64-515) [2] and at ABL1 (64-515) [1] were 5 nM and 6.5 nM, respectively.
For `O=C(Nc1ccc(OC(F)(F)Cl)cc1)c1cnc(N2CCNC3(CC3)C2)c(-c2ccn[nH]2)c1` [Example 56, N-(4-(Chlorodifluoromethoxy)phenyl)-5-(1H-pyrazol-5-yl)-6-(4,7-diazaspiro[2.5]octan-7-yl)nicotinamide], the IC50 on ABL1 (64-515) [2] is 1 nM; at ABL1 (64-515) [1], 2.9 nM.
With `Cc1ncc(-c2cc(C(=O)Nc3ccc(OC(F)(F)F)cc3)cnc2N2CC[C@@H](O)C2)s1` [Example 11, (R)-6-(3-Hydroxypyrrolidin-1-yl)-5-(2-methylthiazol-5-yl)-N-(4-(trifluoromethoxy)phenyl)nicotinamide], at ABL1 (64-515) [2], the IC50 was less than 3 nM.
Turning to `N[C@@H]1[C@H]2CN(c3ncc(C(=O)Nc4ccc(OC(F)(F)Cl)cc4)cc3-c3ccn[nH]3)C[C@@H]12` [Example 55, 6-((1R,5S,6s)-6-Amino-3-azabicyclo[3.1.0]hexan-3-yl)-N-(4-(chlorodifluoromethoxy)phenyl)-5-(1H-pyrazol-5-yl)nicotinamide], the IC50 worked out at 1 nM at ABL1 (64-515) [2] and 0.2 nM at ABL1 (64-515) [1].
Turning to `CO[C@H]1CN(c2ncc(C(=O)Nc3ccc(OC(F)(F)F)cc3)cc2-c2ccn[nH]2)C[C@@H]1N` (relative stereo) [Example 78, 6-(trans-3-Amino-4-methoxypyrrolidin-1-yl)-5-(1H-pyrazol-5-yl)-N-(4-(trifluoromethoxy)phenyl)nicotinamide], the IC50 stood at 4 nM on ABL1 (64-515) [2] and 3.6 nM at ABL1 (64-515) [1].
The matching figures for `N#Cc1cc(-c2cc(C(=O)Nc3ccc(OC(F)(F)F)cc3)cnc2N2CCCC2)[nH]n1` [Example 44, 5-(3-Cyano-1H-pyrazol-5-yl)-6-(pyrrolidin-1-yl)-N-(4-(trifluoromethoxy)phenyl)nicotinamide]: 19 nM and 7.1 nM.
`NC1CN(c2ncc(C(=O)Nc3ccc(OC(F)(F)Cl)cc3)cc2-c2ccn[nH]2)C1` [Example 64, 6-(3-Aminoazetidin-1-yl)-N-(4-(chlorodifluoromethoxy)phenyl)-5-(1H-pyrazol-5-yl)nicotinamide]: the values for the IC50 at ABL1 (64-515) [2] and at ABL1 (64-515) [1] were 4 nM and 0.2 nM, respectively.
For `N#Cc1ccc(-c2cc(C(=O)Nc3ccc(OC(F)(F)F)cc3)ccc2N2C[C@H](O)[C@@H](O)C2)[nH]1` [Example 29, 3-(5-Cyano-1H-pyrrol-2-yl)-4-((3S,4S)-3,4-dihydroxypyrrolidin-1-yl)-N-(4-(trifluoromethoxy)phenyl)benzamide], the figures for the IC50 at ABL1 (64-515) [2] and on ABL1 (64-515) [1] were less than 0.1 nM and 0.5 nM, respectively.
On to `O=C(Nc1ccc(OC(F)(F)F)cc1)c1cnc(N2CC[C@@H](O)C2)c(-c2csc(CO)c2)c1` [Example 12, (R)-5-(5-(Hydroxymethyl)thiophen-3-yl)-6-(3-hydroxypyrrolidin-1-yl)-N-(4-(trifluoromethoxy)phenyl)nicotinamide], for which the IC50 at ABL1 (64-515) [2] is less than 3 nM.
For the compound `N[C@@H]1CN(c2ncc(C(=O)Nc3ccc(OC(F)(F)Cl)cc3)cc2-c2ccn[nH]2)C[C@H]1F` (relative stereo) [Example 52, 6-(trans-3-Amino-4-fluoropyrrolidin-1-yl)-N-(4-(chlorodifluoromethoxy)phenyl)-5-(1H-pyrazol-5-yl)nicotinamide], the values for the IC50 on ABL1 (64-515) [2] and on ABL1 (64-515) [1] were 3 nM and 3.4 nM, respectively.
`O=C(Nc1ccc(OC(F)(F)Cl)cc1)c1cnc(NCC(O)CCO)c(-c2ccn[nH]2)c1` (centres unmarked) [Example 97, N-(4-(Chlorodifluoromethoxy)phenyl)-6-((2,4-dihydroxybutyl)amino)-5-(1H-pyrazol-5-yl)nicotinamide]: the IC50 on ABL1 (64-515) [1] is 5.7 nM.
Regarding `O=C(Nc1ccc(OC(F)(F)Cl)cc1)c1cnc(N2CCC3(CNC3)C2)c(-c2ccn[nH]2)c1` [Example 50, N-(4-(Chlorodifluoromethoxy)phenyl)-5-(1H-pyrazol-5-yl)-6-(2,6-diazaspiro[3.4]octan-6-yl)nicotinamide], at ABL1 (64-515) [2], the IC50 is 1.3 nM.
As for `O=C(Nc1ccc(OC(F)(F)F)cc1)c1cnc(N2CCCC2)c(-c2cc(CO)n[nH]2)c1` [Example 43, 5-(3-(Hydroxymethyl)-1H-pyrazol-5-yl)-6-(pyrrolidin-1-yl)-N-(4-(trifluoromethoxy)phenyl)nicotinamide], the IC50 on ABL1 (64-515) [1] came to 3.3 nM.
In the case of `O=C(Nc1ccc(OC(F)(F)Cl)cc1)c1cnc(NCC[C@H](O)CO)c(-c2ccn[nH]2)c1` [Example 101, (S)—N-(4-(Chlorodifluoromethoxy)phenyl)-6-((3,4-dihydroxybutyl)amino)-5-(1H-pyrazol-5-yl)nicotinamide], the IC50 at ABL1 (64-515) [1] came out at 7.8 nM.
Still for that read-out and setting: the result for `O=C(Nc1ccc(OC(F)(F)Cl)cc1)c1cnc(NC[C@H](O)CCO)c(-c2ccn[nH]2)c1` [Example 99, (R)—N-(4-(Chlorodifluoromethoxy)phenyl)-6-((2,4-dihydroxybutyl)amino)-5-(1H-pyrazol-5-yl)nicotinamide] reads 5.1 nM.
Consider `O=C(Nc1ccc(OC(F)(F)Cl)cc1)c1cnc(N2CCC(F)(F)C2)c(-c2ccn[nH]2)c1` [Example 48, N-(4-(Chlorodifluoromethoxy)phenyl)-6-(3,3-difluoropyrrolidin-1-yl)-5-(1H-pyrazol-5-yl)nicotinamide], for which, at ABL1 (64-515) [2], the IC50 is 5.5 nM.
Consider `O=C(Nc1ccc(OC(F)(F)Cl)cc1)c1cnc(NCCC(O)CO)c(-c2ccn[nH]2)c1` (centres unmarked) [Example 100, N-(4-(Chlorodifluoromethoxy)phenyl)-6-((3,4-dihydroxybutyl)amino)-5-(1H-pyrazol-5-yl)nicotinamide], for which, on ABL1 (64-515) [1], the IC50 came out at 6.6 nM.
Turning to `O=C(O)CCNc1ncc(C(=O)Nc2ccc(OC(F)(F)Cl)cc2)cc1-c1ccn[nH]1` [Example 94, 3-((5-((4-(Chlorodifluoromethoxy)phenyl)carbamoyl)-3-(1H-pyrazol-5-yl)pyridin-2-yl)amino)propanoic acid], the IC50 at ABL1 (64-515) [1] amounted to 23 nM.
The same measure, in the same setting: next, `NCC1(O)CCN(c2ncc(C(=O)Nc3ccc(OC(F)(F)Cl)cc3)cc2-c2ccn[nH]2)C1` (centres unmarked) [Example 83, 6-(3-(Aminomethyl)-3-hydroxypyrrolidin-1-yl)-N-(4-(chlorodifluoromethoxy)phenyl)-5-(1H-pyrazol-5-yl)nicotinamide]: 0.4 nM; `O=C(Nc1ccc(OC(F)(F)F)cc1)c1cnc(N2C[C@H](O)[C@@H](F)C2)c(-c2ccn[nH]2)c1` (relative stereo) [Example 74, 6-(trans-3-Fluoro-4-hydroxypyrrolidin-1-yl)-5-(1H-pyrazol-5-yl)-N-(4-(trifluoromethoxy)phenyl)nicotinamide]: 3.7 nM.
In turn, `O=C(Nc1ccc(OC(F)(F)F)cc1)c1cnc(N2CC[C@@H](O)C2)c(-c2nccs2)c1` [Example 9, (R)-6-(3-Hydroxypyrrolidin-1-yl)-5-(thiazol-2-yl)-N-(4-(trifluoromethoxy)phenyl)nicotinamide] came in with an IC50 at ABL1 (64-515) [2] of 10 nM.
With `O=C(Nc1ccc(OC(F)(F)Cl)cc1)c1cnc(NCCC(O)C(=O)O)c(-c2ccn[nH]2)c1` (centres unmarked) [Example 96, 4-((5-((4-(Chlorodifluoromethoxy)phenyl)carbamoyl)-3-(1H-pyrazol-5-yl)pyridin-2-yl)amino)-2-hydroxybutanoic acid], at ABL1 (64-515) [1], the IC50 is 5.3 nM.

Values taken from patent US9340537B2, “Benzamide derivatives for inhibiting the activity of ABL1, ABL2 and BCR-ABL1” (NOVATIS AG, priority 2012, dated 2016).
